Measured values reported in the NIST ThermoML archive (doi:10.1016/j.jct.2008.09.002).

Test: xn = mol fraction of the nth substance listed
Conditions: 101.3 kPa, Liquid, Vibrating tube method

CCCCCCn1cc[n+](C)c1.F[B-](F)(F)F [1-hexyl-3-methylimidazolium tetrafluoroborate] + C[N+](=O)[O-]
mass density [kg/m3]
Conditions	293.15 K	298.15 K	303.15 K	308.15 K	313.15 K	318.15 K
x1 = 0.098	–	1143.2	1137.7	1132.1	1126.6	1121
x1 = 0.1933	–	1145.8	1140.9	1136	1131.1	1126.2
x1 = 0.3062	–	1146.7	1142.3	1137.8	1133.4	1129
x1 = 0.3988	–	1146.9	1142.7	1138.5	1134.3	1130.2
x1 = 0.4936	–	1146.8	1142.8	1138.8	1134.8	1130.9
x1 = 0.5941	–	1146.6	1142.8	1138.9	1135.1	1131.3
x1 = 0.5973	–	1146.6	1142.8	1138.9	1135.1	1131.3
x1 = 0.6839	–	1146.4	1142.6	1138.9	1135.2	1131.5
x1 = 0.6917	–	1146.2	1142.5	1138.8	1135.1	1131.4
x1 = 0.7702	–	1146.1	1142.5	1138.9	1135.3	1131.6
x1 = 0.7767	–	1146	1142.4	1138.8	1135.2	1131.6
x1 = 0.786	–	1146	1142.4	1138.8	1135.2	1131.6
x1 = 0.8514	–	1145.8	1142.3	1138.7	1135.2	1131.7
x1 = 0.8665	1149.2	1145.7	1142.1	1138.6	1135.1	1131.6
x1 = 0.8727	1149.2	1145.7	1142.2	1138.6	1135.1	1131.6
